Laboratory results from US7576082B2, “Oxindole derivatives” (Hoffman-La Roche Inc., priority 2005, dated 2009).

Target: interaction between p53 and MDM2 proteins (Homo sapiens, UniProt Q00987)
Experiment: HTRF assay of inhibition of the interaction between p53 and MDM2 proteins (GST-MDM2 / biotinylated p53 peptide)
Type: binding
Settings: recombinant GST-tagged MDM2, biotinylated p53 peptide, 37° C. for 1 h
Method: […], the ability of the compounds to inhibit the interaction between p53 and MDM2 proteins was measured.
The ability of the compounds to inhibit the interaction between p53 and MDM2 proteins was measured by an HTRF (homogeneous time-resolved fluorescence) assay in which recombinant GST-tagged MDM2 binds to a peptide that resembles the MDM2-interacting region of p53 (Lane et al.). Binding of GST-MDM2 protein and p53-peptide (biotinylated on its N-terminal end) is registered by the FRET (fluorescence resonance energy transfer) between Europium (Eu)-labeled anti-GST antibody and streptavidin-conjugated Allophycocyanin (APC).
Test is performed in black flat-bottom 384-well plates (Costar) in a total volume of 40 uL containing: 90 nM biotinylate peptide, 160 ng/ml GST-MDM2, 20 nM streptavidin-APC (PerkinElmerWallac), 2 nM Eu-labeled anti-GST-antibody (PerkinElmerWallac), 0.2% bovine serum albumin (BSA), 1 mM dithiothreitol (DTT) and 20 mM Tris-borate saline (TBS) buffer as follows: Add 10 uL of GST-MDM2 (640 ng/ml working solution) in reaction buffer to each well. Add 10 uL diluted compounds (1:5 dilution in reaction buffer) to each well, mix by shaking. Add 20 uL biotinylated p53 peptide (180 nM working solution) in reaction buffer to each well and mix on shaker. Incubate at 37° C. for 1 h. Add 20 uL streptavidin-APC and Eu-anti-GST antibody mixture (6 nM Eu-anti-GST and 60 nM streptavidin-APC working solution) in TBS buffer with 0.2% BSA, shake at room temperature for 30 minutes and read using a TRF-capable plate reader at 665 and 615 nm (Victor 5, Perkin ElmerWallac). If not specified, the reagents were purchased from Sigma Chemical Co.

interaction between p53 and MDM2 proteins, sequence (Q00987 whole entry): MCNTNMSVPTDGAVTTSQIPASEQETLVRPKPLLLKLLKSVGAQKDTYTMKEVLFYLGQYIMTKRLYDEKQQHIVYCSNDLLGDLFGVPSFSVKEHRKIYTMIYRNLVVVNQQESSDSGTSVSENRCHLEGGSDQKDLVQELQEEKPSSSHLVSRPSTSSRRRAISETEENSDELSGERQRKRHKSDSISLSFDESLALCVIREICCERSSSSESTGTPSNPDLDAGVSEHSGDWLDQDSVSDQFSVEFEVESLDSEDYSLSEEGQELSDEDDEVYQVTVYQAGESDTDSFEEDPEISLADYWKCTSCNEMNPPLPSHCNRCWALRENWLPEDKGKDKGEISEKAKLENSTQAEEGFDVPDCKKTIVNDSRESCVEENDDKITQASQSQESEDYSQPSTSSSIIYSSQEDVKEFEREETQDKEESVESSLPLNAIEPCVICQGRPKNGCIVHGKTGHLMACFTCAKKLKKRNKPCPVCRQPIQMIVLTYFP

Row | IC50 [nM] | SMILES
1 | 460 | COc1cccc(C2(Cc3cccc(Cl)c3)C(=O)Nc3cc(Cl)ccc32)c1 (racemic) [Example 9, rac-6-Chloro-3-(3-chloro-benzyl)-3-(3-methoxy-phenyl)-1,3-dihydro-indol-2-one]
2 | 9490 | COc1cccc(C2(Cc3ccccc3)C(=O)Nc3cc(Cl)ccc32)c1 (racemic) [Example 6C, rac-3-Benzyl-6-chloro-3-(3-methoxy-phenyl)-1,3-dihydro-indol-2-one]
3 | 280 | COc1cccc([C@]2(Cc3cccc(Cl)c3)C(=O)Nc3cc(Cl)ccc32)c1 (single isomer, unassigned) [Example 13]
4 | 5380 | O=C1Nc2cc(Cl)ccc2C1(Cc1ccccc1)C1CCCC1 (racemic) [Example 3C, rac-3-Benzyl-6-chloro-3-cyclopentyl-1,3-dihydro-indol-2-one]
